In US20220023227A1, “SYSTEMS AND METHODS FOR FORMING NANOCAPSULES BY PULSED ELECTROSPRAYING” (priority 2020, published 2022):
Entries after “also recorded” stand apart in the source; their conditions may differ.

Tests used:
4T1 tumor cells [1] = assay: 4T1 mammary fat pad tumor growth and survival after 3 weekly doses; type: in vivo, BALB/c mice
Method: Highly aggressive 4T1 tumor cells were implanted into 4th mammary fat pad of BALB/c mice and treatment was started one week post-implantation and total 3 doses (one dose/week) were injected. […] Results are presented as mean±SD (3-5 mice in each group).
(§1) Murine 4T1 cells were originally isolated from a spontaneous mammary tumor in the BALB/c strain and have been reported to show characteristics of human triple-negative breast cancer (TNBC) subtype. We first implanted 50,000 4T1 tumor cells into mammary fat pad of syngeneic mice and started treatment one-week post-implantation. After 3 doses by injection (one dose/week), the treatment was terminated and mice were followed for tumor growth and survival. […] Second set of mice euthanized to examine metastatic colonization of tumor cells in the lungs 72h after the last injection.

4T1 tumor cells [2] = assay: Metastatic outgrowth of disseminated 4T1 tumor cells, mice euthanized 72h after last injection; type: in vivo
From the text: Mice were sacrificed 3 days after the last dose injection to check the metastatic colonization of luciferase expressing 4T1 tumor cells. […] Results are presented as mean±SD (3 mice in each group).
as §1

SMILES: CC(=O)O[C@H]1C(=O)[C@@]2(C)[C@H]([C@H](OC(=O)c3ccccc3)[C@]3(O)C[C@H](OC(=O)[C@H](O)[C@@H](NC(=O)c4ccccc4)c4ccccc4)C(C)=C1C3(C)C)[C@]1(OC(C)=O)CO[C@@H]1C[C@@H]2O [naked paclitaxel, paclitaxel]
- survival compared with tumor bearing mice that did not have any treatment (4T1 tumor cells [1]; 3 doses, one dose/week): longer
- tumor size, difference between groups (4T1 tumor cells [1]; up to 42 days, FIG. 1b): no significant difference
- metastatic colonization of tumor cells in the lungs (ex vivo lung imaging) (4T1 tumor cells [2]; 72h after the last injection, 3 mice in each group, FIG. 2d-e): micro metastatic colonization; also recorded: only micro metastases
- tumor weight (4T1 tumor cells [2]; IP-injection, 72h after the last injection, FIG. 2a-b): decreased the tumor weight but this decrease was not significant; also recorded: decrease the tumor weight
- signal intensity of luciferase in lungs, difference between groups (4T1 tumor cells [2]; ex vivo lung imaging, FIG. 2d-e): not significantly different
